# In patent publication US20200048183A1, “ANTIMICROBIAL AGENTS” (THE UNIVERSITY OF WARWICK, priority 2017, published 2020):
# Where two headings read alike, the source gives them in different places.
# System: multi-drug resistant A. baumannii strains
# Test: Minimum inhibitory concentration (MIC), broth microdilution method according to CLSI guidelines
# Assay type: cell-based, Acinetobacter baumannii
# Settings: for MIC: Acinetobacter baumannii, read-out: MIC against A. baumannii
# Protocol: MIC values for the compounds were determined using the broth microdilution method according to the official CLSI guidelines. Acinetobacter baumannii test strains were grown overnight in Mueller-Hinton (MH) broth at 37° C. In a 96-well microtiter plate, 50 μl of serial two-fold dilutions of an enacyloxin derivative in MH broth were mixed with 50 μl of bacterial suspension, diluted to a concentration of 10^6 CFU/ml in MH broth. The desired inoculum density was achieved using a 0.5 McFarland turbidity standard.
# [1] = multi-drug resistant A. baumannii strains, broth microdilution in MH broth, 18 h at 37° C.
Compound,MIC [1] [µg/mL],also measured
"CC/C=C/C(=O)C[C@H](O)CC(=O)[C@@H](O)[C@H](O)[C@H](C)/C(Cl)=C/C=C/C=C(C)/C=C/C=C/C(=O)O[C@@H]1C[C@@H](C(=O)O)CC[C@@H]1O [Compound 10, 18-dechloro-decarbamoyl-enacyloxin IIa]",,MIC (18 h): 32 µg/mL
"CC/C=C/C1OC(O)([C@@H](O)[C@H](O)[C@H](C)/C(Cl)=C/C=C/C=C(C)/C=C/C=C/C(=O)O[C@@H]2C[C@@H](C(=O)O)CC[C@@H]2O)CC(O)C1Cl (stereo partly drawn) [Compound 3, decarbamoyl-enacyloxin IIa]",4,
"CC/C=C/[C@@H](OC(N)=O)[C@@H](Cl)[C@H](O)CC(=O)[C@@H](O)[C@H](O)[C@H](C)/C(Cl)=C/C=C/C=C(C)/C=C/C=C/C(=O)NCC(O)CC(=O)O (stereo partly drawn) [Compound 23, enacyloxin-4-amino-3-hydroxybutyric acid conjugate]",,MIC (18 h): 64 µg/mL
CC/C=C/[C@@H](OC(N)=O)[C@@H](Cl)[C@H](O)CC(=O)[C@@H](O)[C@H](O)[C@H](C)/C(Cl)=C/C=C/C=C(C)/C=C/C=C/C(=O)O[C@@H]1C[C@H](C(=O)O)CC[C@H]1O [Compound 17],2,
"CC/C=C/[C@H](C[C@H](O)CC(=O)C[C@H](O)[C@H](C)/C(Cl)=C/C=C/C=C(C)/C=C/C=C/C(=O)O[C@@H]1C[C@@H](C(=O)O)CC[C@@H]1O)OC(N)=O [Compound 6, 14-dehydroxy-18-dechloro-enacyloxin IIa]",8,
CC/C=C/[C@@H](OC(N)=O)[C@@H](Cl)[C@H](O)CC(=O)[C@@H](O)[C@H](O)[C@H](C)/C(Cl)=C/C=C/C=C(C)/C=C/C=C/C(=O)O[C@H]1CCC[C@H](C(=O)O)C1 [Compound 22],4,
"CC/C=C/[C@@H](OC(N)=O)[C@@H](Cl)[C@H](O)CC(=O)[C@@H](O)[C@H](O)[C@H](C)/C=C/C=C/C=C(C)/C=C/C=C/C(=O)O[C@@H]1C[C@@H](C(=O)O)CC[C@@H]1O [Compound 7, 11-dechloro-enacyloxin IIa]",4,
CC/C=C/[C@@H](O)C[C@H](O)CC(O)[C@@H](O)[C@H](O)[C@H](C)/C(Br)=C/C=C/C=C(C)/C=C/C=C/C(=O)O[C@@H]1C[C@@H](C(=O)O)CC[C@@H]1O (stereo partly drawn) [Compound 35],32,
"CC/C=C/[C@@H](OC(N)=O)[C@@H](Cl)[C@H](O)CC(=O)[C@@H](O)[C@H](O)[C@H](C)/C(Cl)=C/C=C/C=C(C)/C=C/C=C/C(=O)O[C@@H]1CC(C(=O)O)=CC[C@@H]1O [Compound 28, Δ5912-14 unsaturated enacyloxin analogue]",0.5,
CC/C=C/[C@@H](OC(N)=O)[C@@H](Cl)[C@H](O)CC(=O)[C@@H](O)[C@H](O)[C@H](C)/C(Cl)=C/C=C/C=C(C)/C=C/C=C/C(=O)N[C@H]1CCC[C@H](C(=O)O)C1 [Compound 21],8,
"CC/C=C/[C@@H](O)[C@@H](Cl)[C@H](O)CC(O)[C@@H](O)[C@H](O)[C@H](C)/C(Cl)=C/C=C/C=C(C)/C=C/C=C/C(=O)O[C@@H]1C[C@@H](C(=O)O)CC[C@@H]1O (stereo in doubt) [Compound 9, 15-hydroxy-decarbamoyl enacyloxin IIa]",1,
CC/C=C/[C@@H](O)C[C@H](O)CC(O)C[C@H](O)[C@H](C)/C=C/C=C/C=C(C)/C=C/C=C/C(=O)O[C@@H]1C[C@@H](C(=O)O)CC[C@@H]1O (stereo partly drawn) [Compound 12],> 64,
CC/C=C/[C@@H](O)C[C@H](O)CC(O)[C@@H](O)[C@H](O)[C@H](C)/C(Cl)=C/C=C/C=C(C)/C=C/C=C/C(=O)O[C@@H]1C[C@@H](C(=O)O)CC[C@@H]1O (stereo partly drawn) [Compound 11],8,
CC/C=C/[C@@H](OC(N)=O)[C@@H](Cl)[C@H](O)CC(=O)[C@@H](O)[C@H](O)[C@H](C)/C(Br)=C/C=C/C=C(C)/C=C/C=C/C(=O)O[C@@H]1C[C@@H](C(=O)O)CC[C@@H]1O [Compound 31],2,
"CC/C=C/[C@@H](OC(N)=O)[C@@H](Cl)[C@H](O)CC(=O)[C@@H](O)[C@H](O)[C@H](C)/C(Cl)=C/C=C/C=C(C)/C=C/C=C/C(=O)O[C@@H]1C[C@@H](C(=O)O)C[C@@H](O)[C@@H]1O [Compound 4, 5′-hydroxy-enacyloxin IIa]",,MIC (18 h): 16 µg/mL
"CC/C=C/[C@@H](OC(N)=O)[C@@H](Cl)[C@H](O)CC(=O)C[C@H](O)[C@H](C)/C(Cl)=C/C=C/C=C(C)/C=C/C=C/C(=O)O[C@@H]1C[C@@H](C(=O)O)CC[C@@H]1O [Compound 1, 14-dehydroxy-enacyloxin IIa]",2,
"CC/C=C/[C@@H](OC(N)=O)[C@@H](Cl)[C@H](O)CC(O)[C@@H](O)[C@H](O)[C@H](C)/C(Cl)=C/C=C/C=C(C)/C=C/C=C/C(=O)O[C@@H]1C[C@@H](C(=O)O)CC[C@@H]1O (stereo in doubt) [Compound 8, 15-hydroxy-enacyloxin IIa]",,MIC (18 h): 8 µg/mL
18-dechloro-enacyloxin IIa [Compound 2],,MIC against A. baumannii [1]: 4 µg/mL
"CC/C=C/C1OC(O)(C[C@H](O)[C@H](C)/C(Cl)=C/C=C/C=C(C)/C=C/C=C/C(=O)O[C@@H]2C[C@@H](C(=O)O)CC[C@@H]2O)CC(O)C1Cl (stereo partly drawn) [Compound 5, 14-dehydroxy-18-decarbamoyl-enacyloxin IIa]",8,
CC/C=C/[C@@H](OC(N)=O)[C@@H](Br)[C@H](O)CC(=O)[C@@H](O)[C@H](O)[C@H](C)/C(Br)=C/C=C/C=C(C)/C=C/C=C/C(=O)O[C@@H]1C[C@@H](C(=O)O)CC[C@@H]1O [Compound 30],1,
"CC/C=C/[C@@H](O)[C@@H](Cl)[C@H](O)C[C@@H](O)[C@@H](O)[C@H](O)[C@H](C)/C(Cl)=C/C=C/C=C(C)/C=C/C=C/C(=O)O[C@@H]1CC(C(=O)O)=CC[C@@H]1O [Compound 29, Δ5930/32/12-14 unsaturated enacyloxin analogue]",1,
CC/C=C/[C@@H](O)[C@@H](Cl)[C@H](O)CC(O)[C@@H](O)[C@H](O)[C@H](C)/C(Br)=C/C=C/C=C(C)/C=C/C=C/C(=O)O[C@@H]1C[C@@H](C(=O)O)CC[C@@H]1O (stereo partly drawn) [Compound 34],,MIC (18 h): 2 µg/mL
CC/C=C/[C@H](C[C@H](O)CC(=O)[C@@H](O)[C@H](O)[C@H](C)/C(Br)=C/C=C/C=C(C)/C=C/C=C/C(=O)O[C@@H]1C[C@@H](C(=O)O)CC[C@@H]1O)OC(N)=O [Compound 32],16,
CC/C=C/[C@@H](O)[C@@H](Br)[C@H](O)CC(O)[C@@H](O)[C@H](O)[C@H](C)/C(Br)=C/C=C/C=C(C)/C=C/C=C/C(=O)O[C@@H]1C[C@@H](C(=O)O)CC[C@@H]1O (stereo partly drawn) [Compound 33],1,
